Measurements taken from patent US4012576A, “Antibiotic complex Bu 2183” (priority 1975, dated 1977).
In brackets after ≈: the same amount, converted by molar mass. Where two headings read alike, the source gives them in different places.

Key:
Solubility = assay type: physicochemical; conditions: base
eight test organisms = assay: Effect of media on activity (overall); assay type: cell-based; conditions: pH 8; Nutrient Agar, Heart Infusion Agar, Mueller-Hinton Agar
Method: The effect of media on the activity of Bu-2183 A and B was determined against eight test organisms. The media tested were Nutrient Agar, Heart Infusion Agar and Mueller-Hinton Agar. The media pH was adjusted at pH 8.

[1] = test system: Gram-positive and Gram-negative bacteria; assay: In vitro antibacterial activity (general); assay type: cell-based; conditions: for antibacterial spectrum: in vitro
Method: (§1) The minimum inhibitory concentrations (MIC) of Bu-2183 A and B were determined against a wide variety of bacteria by the two-fold agar dilution method on Nutrient Agar plates. The inocula-replicating device of Steers et al. was used. Inoculum size was adjusted to be 10^4 dilution of overnight culture of the test organisms in Heart Infusion Broth (Difco). The results are shown in Table 6 along with those of kanamycin which was comparatively tested as a reference antibiotic.

[2] = test system: S. aureus Smith, E. coli NIHJ and Ps. aeruginosa A9930; assay: Experimental infections of mice (all three pathogens); assay type: in vivo; conditions: subcutaneous
Method: (§2) Bu-2183 A and B were evaluated in vivo in experimental infections of mice. The pathogenic bacteria employed were S. aureus Smith, E. coli NIHJ and Ps. aeruginosa A9930. Mice were challenged with a 100 × LD50 dose of the pathogens in a 5% suspension of hog gastric mucin. A single subcutaneous treatment with the antibiotic was made immediately after the bacterial challenge (0 hour), and in a double dose schedule the antibiotic was administered at 0 and 3 hours after the challenge.

S. aureus Smith [3] = assay: Experimental infection of mice, median protective dose; assay type: in vivo; conditions: Staphylococcus aureus, sc, 120 h
Method: as §2

Ps. aeruginosa A9930 = assay: as above; assay type: in vivo; conditions: Pseudomonas aeruginosa, A9930, sc, 120 h
Method: as §2

E. coli NIHJ [4] = assay: as above; assay type: in vivo; conditions: Escherichia coli, sc, 120 h
Method: as §2

Ps. aeruginosa A20601 = assay: MIC, two-fold agar dilution on Nutrient Agar; assay type: cell-based; conditions: Pseudomonas aeruginosa, read-out: MIC
Method: as §1

Ent. cloacae A20364 = assay: MIC, two-fold agar dilution on Nutrient Agar; assay type: cell-based
Method: as §1

Pr. morganii A20031 = assay: MIC, two-fold agar dilution on Nutrient Agar; assay type: cell-based
Method: as §1

E. coli ML 1630 = assay: MIC, two-fold agar dilution on Nutrient Agar; assay type: cell-based; conditions: Escherichia coli, read-out: MIC
Method: as §1

[5] = test system: E. coli, K. pneumoniae, Ps. aeruginosa, S. aureus, B. subtilis; assay: Effect of media pH on MIC (overall); assay type: cell-based; conditions: Nutrient Agar, pH 6.0-9.0
Description: (§3) Effect of media pH on the MIC of Bu-2183 A was studied by two-fold agar dilution method using Nutrient Agar Medium at pH 6.0, 7.0, 8.0 and 9.0.

S. aureus Smith [6] = assay: Effect of media pH on MIC, two-fold agar dilution; assay type: cell-based; conditions: Staphylococcus aureus, Table 8, Nutrient Agar
Description: as §3

B. subtilis PCI 219 = assay: Effect of media pH on MIC, two-fold agar dilution; assay type: cell-based; conditions: Bacillus subtilis, PCI219, Table 8, Nutrient Agar
Description: as §3

K. pneumoniae D 11 = assay: Effect of media pH on MIC, two-fold agar dilution; assay type: cell-based; conditions: Klebsiella pneumoniae, D11, Table 8, Nutrient Agar
Description: as §3

E. coli NIHJ [7] = assay: Effect of media pH on MIC, two-fold agar dilution; assay type: cell-based; conditions: Escherichia coli, Table 8, Nutrient Agar
Description: as §3

Ps. aeruginosa D 15 = assay: Effect of media pH on MIC, two-fold agar dilution; assay type: cell-based; conditions: Pseudomonas aeruginosa, D15, Table 8, Nutrient Agar
Description: as §3

[8] = double dose at 0 and 3 hours after challenge, read-out: PD50 (double doses)
[9] = subcutaneous, single dose at 0 hour, 100 × LD50 challenge, read-out: PD50 (single dose)
[10] = Enterobacter cloacae, A20364, Table 6, El-2, read-out: MIC
[11] = Morganella morganii, A20031, Table 6, Pg-2, read-out: MIC

CCC(=O)NC1C(CO)OC(OC(C(O)CN)C(N)C(O)CO)C(O)C1O (centres unmarked) [Bu-2183 A]
solubility in methanol and ethanol (Solubility): slightly soluble | solubility in n-butanol, acetone and other common organic solvents (Solubility): practically insoluble | solubility in water (Solubility): soluble | medium of greatest in vitro activity (eight test organisms): the greatest in vitro activity was demonstrated when Nutrient Agar was used | bio-activity [1]: bio-active | intrinsic activity in terms of MIC values [1]: moderate or rather weak | activity of component A relative to B ([1]; MIC, Table 6): 2-4 fold | antibacterial spectrum [1]: broad spectrum of antibacterial activity against Gram-positive and Gram-negative bacteria including many of the aminoglycoside-resistant organisms and Pseudomonas strains | in vivo activity [2]: afforded in vivo activity against all three of the infections tested | ED50 (S. aureus Smith [3]; [8]): 36 mg/kg | ED50 (S. aureus Smith [3]; [9]): 42 mg/kg | ED50 (Ps. aeruginosa A9930; [8]): 80 mg/kg | ED50 (Ps. aeruginosa A9930; [9]): 230 mg/kg | ED50 (E. coli NIHJ [4]; [8]): 45 mg/kg | ED50 (E. coli NIHJ [4]; [9]): 92 mg/kg | MIC (Ps. aeruginosa A20601; A20601, Table 6, Pa-21): 25 µg/mL (≈ 62.9 µM) | MIC (Ps. aeruginosa A20601; A20601, Table 7, Pa-21): 50 µg/mL (≈ 126 µM) | MIC (Ent. cloacae A20364; [10]): 25 µg/mL (≈ 62.9 µM) | MIC (Ent. cloacae A20364; Table 7, El-2): 25 µg/mL (≈ 62.9 µM) | MIC (Pr. morganii A20031; [11]): 25 µg/mL (≈ 62.9 µM) | MIC (Pr. morganii A20031; Table 7, Pg-2): 25 µg/mL (≈ 62.9 µM) | MIC (E. coli ML 1630; ML1630, Table 6, Ec-5): 12.5 µg/mL (≈ 31.5 µM) | MIC (E. coli ML 1630; ML1630, Table 7, Ec-5): 25 µg/mL (≈ 62.9 µM) | effect of media pH on activity [5]: increased at alkaline pH and decreased at acidic pH | MIC (S. aureus Smith [6]; pH 6): > 50 µg/mL | MIC (S. aureus Smith [6]; pH 7): 50 µg/mL (≈ 126 µM) | MIC (S. aureus Smith [6]; pH 8): 50 µg/mL (≈ 126 µM) | MIC (S. aureus Smith [6]; pH 9): 50 µg/mL (≈ 126 µM) | MIC (B. subtilis PCI 219; pH 6): 50 µg/mL (≈ 126 µM) | MIC (B. subtilis PCI 219; pH 7): 6.3 µg/mL (≈ 15.9 µM) | MIC (B. subtilis PCI 219; pH 8): 6.3 µg/mL (≈ 15.9 µM) | MIC (B. subtilis PCI 219; pH 9): 6.3 µg/mL (≈ 15.9 µM) | MIC (K. pneumoniae D 11; pH 6): 12.5 µg/mL (≈ 31.5 µM) | MIC (K. pneumoniae D 11; pH 7): 12.5 µg/mL (≈ 31.5 µM) | MIC (K. pneumoniae D 11; pH 8): 12.5 µg/mL (≈ 31.5 µM) | MIC (K. pneumoniae D 11; pH 9): 3.1 µg/mL (≈ 7.8 µM) | MIC (E. coli NIHJ [7]; pH 6): > 50 µg/mL | MIC (E. coli NIHJ [7]; pH 7): 50 µg/mL (≈ 126 µM) | MIC (E. coli NIHJ [7]; pH 8): 25 µg/mL (≈ 62.9 µM) | MIC (E. coli NIHJ [7]; pH 9): 12.5 µg/mL (≈ 31.5 µM) | MIC (Ps. aeruginosa D 15; pH 6): > 50 µg/mL | MIC (Ps. aeruginosa D 15; pH 7): 50 µg/mL (≈ 126 µM) | MIC (Ps. aeruginosa D 15; pH 8): 25 µg/mL (≈ 62.9 µM) | MIC (Ps. aeruginosa D 15; pH 9): 12.5 µg/mL (≈ 31.5 µM)

CC(=O)NC1C(CO)OC(OC(C(O)CN)C(N)C(O)CO)C(O)C1O (centres unmarked) [Bu-2183 B]
solubility in methanol and ethanol (Solubility): slightly soluble | solubility in n-butanol, acetone and other common organic solvents (Solubility): practically insoluble | solubility in water (Solubility): soluble | medium of greatest in vitro activity (eight test organisms): the greatest in vitro activity was demonstrated when Nutrient Agar was used | bio-activity [1]: bio-active | intrinsic activity in terms of MIC values [1]: moderate or rather weak | antibacterial spectrum ([1]; listed as B): broad spectrum of antibacterial activity against Gram-positive and Gram-negative bacteria including many of the aminoglycoside-resistant organisms and Pseudomonas strains | in vivo activity [2]: afforded in vivo activity against all three of the infections tested | ED50 (S. aureus Smith [3]; [9]): 100 mg/kg | ED50 (Ps. aeruginosa A9930; [9]): 540 mg/kg | ED50 (E. coli NIHJ [4]; [9]): 135 mg/kg | MIC (Ps. aeruginosa A20601; A20601, Table 6, Pa-21): 50 µg/mL (≈ 130 µM) | MIC (Ent. cloacae A20364; [10]): 50 µg/mL (≈ 130 µM) | MIC (Pr. morganii A20031; [11]): 50 µg/mL (≈ 130 µM) | MIC (E. coli ML 1630; ML1630, Table 6, Ec-5): 50 µg/mL (≈ 130 µM)
